From patent publication US10668048B2, “Compounds for inhibiting bacterial growth via phosphatidylglycerol binding” (Wichita State University, priority 2016, dated 2020)

Columns and labels:
[1] = Carboxy-fluorescein efflux from PE/PG liposomes; assay type: biochemical; settings: 2.5 μM, after 90 minutes
Procedure: Liptin 3e causes membrane leakage when it binds to PG in a membrane, as evidenced by the efflux of fluorescent carboxy-fluorescein from model lipid vesicles of 80% PE/20% PG (the approximate lipid content models E. coli's plasma membrane), shown in FIG. 19A. […] Not shown is the effect of the bee AMP melittin, which forms pores in membranes at 2.5 μM concentrations. Upon addition of melittin within a few minutes of addition the efflux is 100%.
Liptins 3f-h also cause membrane leakage when they bind to PG in a membrane, as evidenced by the efflux of fluorescent carboxy-fluorescein from model lipid vesicles of 80% PE/20% PG (the lipid content models E. coli's plasma membrane), shown in FIG. 19B. The circle bottom line data set is the control without liptin. […] Y-axis: % Efflux; X-axis: Time in minutes.
This greater efflux activity may well translate to lower MICs of these two compounds relative to liptin 3e, and may well change the liptin activity from bacteriostatic to bactericidal. […]

Red blood cells (RBCs) = assay: Erythrocyte toxicity, hemoglobin release at 414 nm; assay type: cell-based; settings: 2.5-5 μM, 30 minutes, 37° C.
Procedure: Toxicity of liptin 3e to eukaryotic erythrocytes was assessed by UV/Visible spectroscopy, whereby the change in absorbance at 414 nm was used to quantify the release of hemoglobin, where 100% hemolysis was measured by adding 1% Triton X-100 detergent. Red blood cells (RBCs) were suspended in a buffer of 25 mM TRIS and 1.5 mM dihydrogenphosphate anion (serum inorganic phosphate levels). To the RBCs samples was added differing concentration of 3e—2.5 μM, 5 μM, 7.5 μM, and 10 μM, as well as control containing no 3e, and after 30 minutes incubation and gentle shaking at 37° C. spectra were obtained.

[2] = Carboxyfluorescein efflux from pure PG vesicles; assay type: biochemical; settings: room temperature, after three hours
Procedure: Liptin/bilayer interactions were evaluated using conventional efflux measurements. These experiments make use of the self-quenching fluorescence of carboxyfluorescein. At relatively high concentrations (ca. 50 mM) the fluorescence from carboxyfluorescein is diminished by approximately 70% due to intermolecular interactions.
To perform efflux experiments vesicles were prepared by rehydrating a film of pure DPPG with a 50 mM solution of carboxyfluorescein in buffer. The solution was then extruded through a polycarbonate membrane with 200 nm pore size. […] Under these conditions, as the dye leaves the vesicles by efflux, fluorescence intensity increases. Monitoring the fluorescence intensity over time provides a measure of the rate at which dye crosses the membrane and an indication of the “leakiness” of the vesicle bilayer. Efflux can be expressed as % Efflux by the following expression:
[formula] where F0 is the fluorescence intensity corresponding to the initial sample when efflux first begins and F∞ is the intensity after efflux is complete and is determined by rupturing the vesicles by the addition of a small amount of concentrated detergent. F(t) is the fluorescence intensity measured as the efflux occurs. […]

SMILES: NCC(=O)Nc1ccccc1-c1c2nc(c(-c3ccccc3NC(=O)CN)c3ccc([nH]3)c(-c3ccccc3NC(=O)CN)c3nc(c(-c4ccccc4NC(=O)CN)c4ccc1[nH]4)C=C3)C=C2.O=C(O)C(F)(F)F.O=C(O)C(F)(F)F.O=C(O)C(F)(F)F.O=C(O)C(F)(F)F [Liptin 3e]
- dye leakage (efflux) [1]: 5-10%
- damage to red blood cells (hemolysis) (Red blood cells (RBCs)): 4.5-11%
- % Efflux of carboxyfluorescein [2]: 5%
